Laboratory results taken from ChEMBL document CHEMBL4118098, “Discovery of DS28120313 as a potent orally active hepcidin production inhibitor: Design and optimization of novel 4,6-disubstituted indazole derivatives” (Bioorg Med Chem Lett, 2017).

Key:
[1] = target: Calcium/calmodulin-dependent protein kinase type II subunit beta (Homo sapiens) (UniProt Q13554); test: Inhibition of CaMK2-beta (unknown origin) at 0.164 uM relative to control
[2] = target: Tyrosine-protein kinase JAK3 (Homo sapiens) (UniProt P52333); test: Inhibition of JAK3 (unknown origin) at 0.164 uM relative to control
[3] = species on record: Homo sapiens; test: Inhibition of PKA (unknown origin) at 0.164 uM relative to control
[4] = target: Serine/threonine-protein kinase 24 (Homo sapiens) (UniProt Q9Y6E0); test: Inhibition of MST3 (unknown origin) at 0.164 uM relative to control
[5] = tested on: Hepatocyte growth factor receptor (Homo sapiens), P08581 [M1250T]; test: Inhibition of MET M1250T mutant (unknown origin) at 0.164 uM relative to control
[6] = target: MAP kinase-activated protein kinase 2 (Homo sapiens) (UniProt P49137); test: Inhibition of MAPKAPK2 (unknown origin) at 0.164 uM relative to control
[7] = target: Ephrin type-B receptor 4 (Homo sapiens) (UniProt P54760); test: Inhibition of EPHB4 (unknown origin) at 0.164 uM relative to control
[8] = target: Dual specificity tyrosine-phosphorylation-regulated kinase 4 (Homo sapiens) (UniProt Q9NR20); test: Inhibition of DYRK4 (unknown origin) at 0.164 uM relative to control
[9] = tested on: Platelet-derived growth factor receptor alpha (Homo sapiens), P16234 [D842V]; test: Inhibition of PDGFRA D842V mutant (unknown origin) at 0.164 uM relative to control
[10] = target: Epidermal growth factor receptor (Homo sapiens) (UniProt P00533); test: Inhibition of EGFR (unknown origin) at 0.19 uM relative to control
[11] = target: Calcium/calmodulin-dependent protein kinase type IV (Homo sapiens) (UniProt Q16566); test: Inhibition of CAMK4 (unknown origin) at 0.19 uM relative to control
[12] = target: Cyclin-dependent kinase 3 (Homo sapiens) (UniProt Q00526); test: Inhibition of CDK3 (unknown origin) at 0.19 uM relative to control
[13] = target: Serine/threonine-protein kinase 25 (Homo sapiens) (UniProt O00506); test: Inhibition of YSK (unknown origin) at 0.19 uM relative to control
[14] = target: T1, MAP kinase-activated protein kinase 5 (Homo sapiens) (UniProt Q8IW41); test: Inhibition of PRAK (unknown origin) at 0.19 uM relative to control
T1 sequence (whole entry): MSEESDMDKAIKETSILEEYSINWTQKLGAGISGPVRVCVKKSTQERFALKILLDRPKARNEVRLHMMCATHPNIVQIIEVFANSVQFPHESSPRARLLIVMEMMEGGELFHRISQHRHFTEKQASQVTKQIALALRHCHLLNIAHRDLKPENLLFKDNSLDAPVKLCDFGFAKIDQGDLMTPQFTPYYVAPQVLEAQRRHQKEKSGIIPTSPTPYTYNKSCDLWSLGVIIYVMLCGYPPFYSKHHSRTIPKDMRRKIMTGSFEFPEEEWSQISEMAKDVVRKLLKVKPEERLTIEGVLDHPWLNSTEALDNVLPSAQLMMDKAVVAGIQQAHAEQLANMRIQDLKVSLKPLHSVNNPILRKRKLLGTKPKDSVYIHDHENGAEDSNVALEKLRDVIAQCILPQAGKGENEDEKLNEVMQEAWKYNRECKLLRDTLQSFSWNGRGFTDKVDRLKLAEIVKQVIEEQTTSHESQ

[15] = target: Cyclin-dependent kinase 2 (Homo sapiens) (UniProt P24941); test: Inhibition of CDK2 (unknown origin) at 0.19 uM relative to control
[16] = target: Serine/threonine-protein kinase 4 (Homo sapiens) (UniProt Q13043); test: Inhibition of MST1 (unknown origin) at 0.19 uM relative to control
[17] = target: Serine/threonine-protein kinase Chk2 (Homo sapiens) (UniProt O96017); test: Inhibition of CHK2 (unknown origin) at 0.19 uM relative to control
[18] = target: BDNF/NT-3 growth factors receptor (Homo sapiens) (UniProt Q16620); test: Inhibition of NTRK2 (unknown origin) at 0.19 uM relative to control
[19] = target: Inhibitor of nuclear factor kappa-B kinase subunit epsilon (Homo sapiens) (UniProt Q14164); test: Inhibition of IKBKE (unknown origin) at 0.19 uM relative to control
[20] = target: Serine/threonine-protein kinase 10 (Homo sapiens) (UniProt O94804); test: Inhibition of LOK (unknown origin) at 0.19 uM relative to control
[21] = target: T2, Serine/threonine-protein kinase D1 (Homo sapiens) (UniProt Q15139); test: Inhibition of PKD1 (unknown origin) at 0.19 uM relative to control
T2 sequence (whole entry): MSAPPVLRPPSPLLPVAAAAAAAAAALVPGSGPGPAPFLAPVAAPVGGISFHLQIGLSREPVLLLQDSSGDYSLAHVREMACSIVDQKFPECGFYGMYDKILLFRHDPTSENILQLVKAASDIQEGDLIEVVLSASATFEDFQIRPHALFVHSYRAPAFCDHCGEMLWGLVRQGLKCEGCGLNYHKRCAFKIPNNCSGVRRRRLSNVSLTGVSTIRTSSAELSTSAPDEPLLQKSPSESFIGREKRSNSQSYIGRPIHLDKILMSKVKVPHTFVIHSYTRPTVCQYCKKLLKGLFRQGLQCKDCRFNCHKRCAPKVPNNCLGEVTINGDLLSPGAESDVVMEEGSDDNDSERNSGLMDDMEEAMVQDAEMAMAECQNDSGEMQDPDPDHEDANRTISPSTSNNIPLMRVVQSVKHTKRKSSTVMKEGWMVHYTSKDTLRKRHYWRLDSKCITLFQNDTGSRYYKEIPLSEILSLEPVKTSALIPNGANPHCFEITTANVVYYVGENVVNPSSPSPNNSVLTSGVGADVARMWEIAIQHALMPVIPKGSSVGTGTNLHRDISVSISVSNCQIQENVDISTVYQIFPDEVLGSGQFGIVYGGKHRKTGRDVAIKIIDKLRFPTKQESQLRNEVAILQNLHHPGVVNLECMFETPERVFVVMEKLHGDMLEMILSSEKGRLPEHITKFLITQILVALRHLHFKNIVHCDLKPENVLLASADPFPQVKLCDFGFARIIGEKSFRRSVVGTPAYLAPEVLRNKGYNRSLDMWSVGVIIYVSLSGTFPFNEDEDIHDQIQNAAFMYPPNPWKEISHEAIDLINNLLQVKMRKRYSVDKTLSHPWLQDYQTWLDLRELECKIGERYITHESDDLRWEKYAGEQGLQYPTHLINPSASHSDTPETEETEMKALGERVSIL

[22] = target: Serine/threonine-protein kinase PAK 5 (Homo sapiens) (UniProt Q9P286); test: Inhibition of PAK5/PAK7 (unknown origin) at 0.19 uM relative to control
[23] = target: Insulin receptor (Homo sapiens) (UniProt P06213); test: Inhibition of INSR (unknown origin) at 0.19 uM relative to control
Chain of Insulin receptor (Homo sapiens) (P06213 28-758 limits assumed): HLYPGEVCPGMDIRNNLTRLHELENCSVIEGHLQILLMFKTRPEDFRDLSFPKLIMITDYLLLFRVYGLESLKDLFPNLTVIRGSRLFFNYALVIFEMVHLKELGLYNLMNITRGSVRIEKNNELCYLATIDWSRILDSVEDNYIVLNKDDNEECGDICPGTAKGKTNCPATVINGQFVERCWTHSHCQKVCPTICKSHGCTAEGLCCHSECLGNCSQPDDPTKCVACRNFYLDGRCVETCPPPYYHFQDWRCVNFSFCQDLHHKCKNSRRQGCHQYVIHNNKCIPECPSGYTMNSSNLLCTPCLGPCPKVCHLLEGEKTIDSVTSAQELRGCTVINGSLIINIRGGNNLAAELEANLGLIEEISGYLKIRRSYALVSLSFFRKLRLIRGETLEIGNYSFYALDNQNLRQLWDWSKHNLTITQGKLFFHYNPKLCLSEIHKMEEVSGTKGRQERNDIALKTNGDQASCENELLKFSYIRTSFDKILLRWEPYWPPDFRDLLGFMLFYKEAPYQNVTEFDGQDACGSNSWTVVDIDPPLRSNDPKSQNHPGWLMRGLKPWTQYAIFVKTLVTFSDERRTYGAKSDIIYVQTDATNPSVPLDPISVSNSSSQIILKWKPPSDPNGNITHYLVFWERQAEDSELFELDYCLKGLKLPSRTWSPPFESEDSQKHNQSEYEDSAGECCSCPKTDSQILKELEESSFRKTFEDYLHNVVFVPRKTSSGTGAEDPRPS
Chain of Insulin receptor (Homo sapiens) (P06213 763-1382 limits assumed): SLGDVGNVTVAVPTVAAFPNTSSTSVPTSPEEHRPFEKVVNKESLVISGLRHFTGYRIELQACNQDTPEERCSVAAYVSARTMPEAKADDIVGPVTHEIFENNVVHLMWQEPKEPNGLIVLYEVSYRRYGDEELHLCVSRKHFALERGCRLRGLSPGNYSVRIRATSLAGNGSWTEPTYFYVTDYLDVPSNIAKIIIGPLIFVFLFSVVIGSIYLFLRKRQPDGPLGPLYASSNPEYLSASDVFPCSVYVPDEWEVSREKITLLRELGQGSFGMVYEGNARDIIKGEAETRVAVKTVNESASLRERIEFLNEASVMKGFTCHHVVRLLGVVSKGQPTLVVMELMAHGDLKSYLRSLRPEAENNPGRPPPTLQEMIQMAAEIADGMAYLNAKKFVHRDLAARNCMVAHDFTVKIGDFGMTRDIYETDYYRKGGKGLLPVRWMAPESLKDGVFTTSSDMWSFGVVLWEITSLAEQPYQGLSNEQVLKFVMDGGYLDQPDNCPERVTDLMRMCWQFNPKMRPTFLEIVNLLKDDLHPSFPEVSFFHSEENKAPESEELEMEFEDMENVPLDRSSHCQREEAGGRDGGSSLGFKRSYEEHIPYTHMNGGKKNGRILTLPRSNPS

Chain of BDNF/NT-3 growth factors receptor (Homo sapiens) (Q16620 32-822 limits assumed): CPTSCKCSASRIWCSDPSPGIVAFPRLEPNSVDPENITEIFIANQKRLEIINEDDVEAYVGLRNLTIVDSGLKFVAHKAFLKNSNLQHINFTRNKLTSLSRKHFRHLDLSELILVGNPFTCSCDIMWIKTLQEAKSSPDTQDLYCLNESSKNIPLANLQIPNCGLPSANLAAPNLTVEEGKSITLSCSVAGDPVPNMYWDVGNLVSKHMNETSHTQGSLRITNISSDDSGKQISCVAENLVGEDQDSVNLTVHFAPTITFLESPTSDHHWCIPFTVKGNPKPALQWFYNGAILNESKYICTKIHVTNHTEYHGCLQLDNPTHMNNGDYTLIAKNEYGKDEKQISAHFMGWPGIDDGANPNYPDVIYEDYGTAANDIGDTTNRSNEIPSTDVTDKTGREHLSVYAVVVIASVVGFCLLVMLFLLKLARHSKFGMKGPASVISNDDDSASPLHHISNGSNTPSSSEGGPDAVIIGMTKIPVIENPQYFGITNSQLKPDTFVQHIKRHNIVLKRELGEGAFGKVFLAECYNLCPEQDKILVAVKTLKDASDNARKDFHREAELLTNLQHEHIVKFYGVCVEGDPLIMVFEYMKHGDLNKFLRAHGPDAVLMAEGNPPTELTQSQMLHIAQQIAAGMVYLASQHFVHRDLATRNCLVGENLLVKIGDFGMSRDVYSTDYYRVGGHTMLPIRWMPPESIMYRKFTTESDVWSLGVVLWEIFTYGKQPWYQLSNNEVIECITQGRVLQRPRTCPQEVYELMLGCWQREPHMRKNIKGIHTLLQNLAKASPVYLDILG
Chain of Serine/threonine-protein kinase 4 (Homo sapiens) (Q13043 whole entry): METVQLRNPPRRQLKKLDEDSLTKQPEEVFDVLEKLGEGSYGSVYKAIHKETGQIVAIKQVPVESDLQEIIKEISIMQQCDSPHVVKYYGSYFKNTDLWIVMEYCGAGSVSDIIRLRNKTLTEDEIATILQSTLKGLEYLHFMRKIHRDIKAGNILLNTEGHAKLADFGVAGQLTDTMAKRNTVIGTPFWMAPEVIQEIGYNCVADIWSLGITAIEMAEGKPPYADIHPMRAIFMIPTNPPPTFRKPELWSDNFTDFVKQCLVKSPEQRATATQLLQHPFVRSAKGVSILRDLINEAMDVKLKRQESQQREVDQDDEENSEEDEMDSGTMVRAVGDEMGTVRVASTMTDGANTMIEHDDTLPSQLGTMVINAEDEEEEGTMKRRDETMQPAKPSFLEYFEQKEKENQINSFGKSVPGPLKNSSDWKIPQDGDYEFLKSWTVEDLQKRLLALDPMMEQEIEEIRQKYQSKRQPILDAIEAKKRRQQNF
Chain of Inhibitor of nuclear factor kappa-B kinase subunit epsilon (Homo sapiens) (Q14164 whole entry): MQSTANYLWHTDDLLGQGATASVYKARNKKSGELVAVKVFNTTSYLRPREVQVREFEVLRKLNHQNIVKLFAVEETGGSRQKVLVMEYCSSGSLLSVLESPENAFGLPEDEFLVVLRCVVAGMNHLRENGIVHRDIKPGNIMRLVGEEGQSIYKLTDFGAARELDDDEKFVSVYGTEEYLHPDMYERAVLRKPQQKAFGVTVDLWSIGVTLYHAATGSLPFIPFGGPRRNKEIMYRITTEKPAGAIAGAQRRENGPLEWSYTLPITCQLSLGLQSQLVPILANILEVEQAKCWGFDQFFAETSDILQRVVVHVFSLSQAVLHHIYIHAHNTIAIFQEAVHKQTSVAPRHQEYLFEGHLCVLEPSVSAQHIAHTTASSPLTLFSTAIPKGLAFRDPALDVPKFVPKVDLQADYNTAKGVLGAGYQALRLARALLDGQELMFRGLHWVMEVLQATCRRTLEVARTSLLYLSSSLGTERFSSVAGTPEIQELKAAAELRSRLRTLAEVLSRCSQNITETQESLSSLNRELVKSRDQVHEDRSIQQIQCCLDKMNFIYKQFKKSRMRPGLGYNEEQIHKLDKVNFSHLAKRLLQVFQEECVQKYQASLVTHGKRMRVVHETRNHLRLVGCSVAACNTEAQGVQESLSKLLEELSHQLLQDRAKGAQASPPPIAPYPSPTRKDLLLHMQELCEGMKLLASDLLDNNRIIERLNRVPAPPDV
Chain of MAP kinase-activated protein kinase 2 (Homo sapiens) (P49137 whole entry, looked up): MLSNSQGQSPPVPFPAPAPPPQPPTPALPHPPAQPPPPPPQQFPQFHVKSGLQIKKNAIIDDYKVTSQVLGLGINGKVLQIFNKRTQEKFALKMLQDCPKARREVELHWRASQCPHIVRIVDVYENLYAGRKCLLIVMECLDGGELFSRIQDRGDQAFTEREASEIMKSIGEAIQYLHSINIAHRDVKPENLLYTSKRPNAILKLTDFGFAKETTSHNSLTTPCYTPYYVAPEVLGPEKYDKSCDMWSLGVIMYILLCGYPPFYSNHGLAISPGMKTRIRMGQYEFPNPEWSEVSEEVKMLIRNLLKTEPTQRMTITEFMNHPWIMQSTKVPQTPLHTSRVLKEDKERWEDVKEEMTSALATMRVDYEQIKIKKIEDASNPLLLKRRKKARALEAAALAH
Chain of Dual specificity tyrosine-phosphorylation-regulated kinase 4 (Homo sapiens) (Q9NR20 whole entry): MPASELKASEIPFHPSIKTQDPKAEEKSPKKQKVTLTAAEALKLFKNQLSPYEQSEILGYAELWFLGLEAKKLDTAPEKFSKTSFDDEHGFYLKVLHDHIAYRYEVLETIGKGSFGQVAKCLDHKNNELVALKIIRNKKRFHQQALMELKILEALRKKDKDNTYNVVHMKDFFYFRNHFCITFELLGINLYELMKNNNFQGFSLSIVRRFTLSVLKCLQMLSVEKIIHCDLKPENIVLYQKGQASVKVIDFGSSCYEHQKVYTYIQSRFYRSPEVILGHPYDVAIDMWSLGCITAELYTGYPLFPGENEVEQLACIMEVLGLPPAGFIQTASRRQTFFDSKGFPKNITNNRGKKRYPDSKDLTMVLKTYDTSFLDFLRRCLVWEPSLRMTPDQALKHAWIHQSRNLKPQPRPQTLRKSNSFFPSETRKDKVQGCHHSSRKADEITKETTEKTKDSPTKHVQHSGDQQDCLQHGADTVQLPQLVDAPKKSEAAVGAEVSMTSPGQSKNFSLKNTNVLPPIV
Chain of Serine/threonine-protein kinase 25 (Homo sapiens) (O00506 whole entry, looked up): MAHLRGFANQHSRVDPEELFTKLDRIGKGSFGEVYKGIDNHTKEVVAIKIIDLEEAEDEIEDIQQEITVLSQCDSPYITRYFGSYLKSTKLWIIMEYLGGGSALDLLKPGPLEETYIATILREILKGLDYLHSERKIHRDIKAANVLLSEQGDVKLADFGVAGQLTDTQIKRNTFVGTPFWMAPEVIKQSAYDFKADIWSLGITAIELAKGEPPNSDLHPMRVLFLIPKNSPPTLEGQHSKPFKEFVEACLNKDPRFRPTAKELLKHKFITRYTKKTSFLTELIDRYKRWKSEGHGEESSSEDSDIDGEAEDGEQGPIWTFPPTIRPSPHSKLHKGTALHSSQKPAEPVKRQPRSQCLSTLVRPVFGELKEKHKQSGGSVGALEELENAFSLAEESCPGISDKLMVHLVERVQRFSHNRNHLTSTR
Chain of Cyclin-dependent kinase 3 (Homo sapiens) (Q00526 whole entry, looked up): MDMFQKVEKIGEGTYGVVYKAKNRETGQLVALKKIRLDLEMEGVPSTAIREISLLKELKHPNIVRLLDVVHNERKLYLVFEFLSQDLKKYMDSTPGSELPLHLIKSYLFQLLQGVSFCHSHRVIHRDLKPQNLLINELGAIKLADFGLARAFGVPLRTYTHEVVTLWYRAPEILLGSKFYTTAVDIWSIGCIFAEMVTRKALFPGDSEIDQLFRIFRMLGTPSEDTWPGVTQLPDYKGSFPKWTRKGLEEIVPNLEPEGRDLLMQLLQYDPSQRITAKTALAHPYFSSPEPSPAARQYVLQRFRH

COC(=O)Nc1cc(-c2c(C3CC3)n[nH]c2C)cc2[nH]ncc12
inhibition [1]: 28% | inhibition [2]: 0% | inhibition [3]: 5.7% | inhibition [4]: 6% | inhibition [5]: -0.3% | inhibition [6]: 7% | inhibition [7]: -2.3% | inhibition [8]: 2.7% | inhibition [9]: 23.7%

Cc1[nH]nc(C2CC2)c1-c1ccc2c(-c3ccc(N4CCN(C)CC4)nc3)n[nH]c2c1
inhibition [10]: -6.7% | inhibition [11]: 1.3% | inhibition [12]: 1.7% | inhibition [13]: 20% | inhibition [14]: 1.3% | inhibition [15]: -1.7% | inhibition [16]: 28% | inhibition [17]: 3% | inhibition [18]: 18.3% | inhibition [19]: 1% | inhibition [20]: 4.3% | inhibition [21]: 7% | inhibition [22]: -2.7% | inhibition [23]: 1.7%
